Laboratory results taken from patent publication US7737136B2 (N.V. Organon, priority 2002, dated 2010).

Experiments:
[1] = biological target: T1, human progesterone receptor-B (Homo sapiens, UniProt P06401); assay: Progesterone receptor-B transactivation assay, progestagenic (agonist) activity, CHO-PRB-pMMTV-LUC 1E2-A2 cells; format: cell-based; settings: CHO cells stably transfected with human progesterone receptor-B and MMTV-luciferase reporter; read-out: Progestagenic activity EC50
T1 construct: expressed in transfected cells; host or cells: Chinese hamster ovary (CHO) cells, line CHO-PRB-pMMTV-LUC 1E2-A2
T1 sequence (P06401 1-933): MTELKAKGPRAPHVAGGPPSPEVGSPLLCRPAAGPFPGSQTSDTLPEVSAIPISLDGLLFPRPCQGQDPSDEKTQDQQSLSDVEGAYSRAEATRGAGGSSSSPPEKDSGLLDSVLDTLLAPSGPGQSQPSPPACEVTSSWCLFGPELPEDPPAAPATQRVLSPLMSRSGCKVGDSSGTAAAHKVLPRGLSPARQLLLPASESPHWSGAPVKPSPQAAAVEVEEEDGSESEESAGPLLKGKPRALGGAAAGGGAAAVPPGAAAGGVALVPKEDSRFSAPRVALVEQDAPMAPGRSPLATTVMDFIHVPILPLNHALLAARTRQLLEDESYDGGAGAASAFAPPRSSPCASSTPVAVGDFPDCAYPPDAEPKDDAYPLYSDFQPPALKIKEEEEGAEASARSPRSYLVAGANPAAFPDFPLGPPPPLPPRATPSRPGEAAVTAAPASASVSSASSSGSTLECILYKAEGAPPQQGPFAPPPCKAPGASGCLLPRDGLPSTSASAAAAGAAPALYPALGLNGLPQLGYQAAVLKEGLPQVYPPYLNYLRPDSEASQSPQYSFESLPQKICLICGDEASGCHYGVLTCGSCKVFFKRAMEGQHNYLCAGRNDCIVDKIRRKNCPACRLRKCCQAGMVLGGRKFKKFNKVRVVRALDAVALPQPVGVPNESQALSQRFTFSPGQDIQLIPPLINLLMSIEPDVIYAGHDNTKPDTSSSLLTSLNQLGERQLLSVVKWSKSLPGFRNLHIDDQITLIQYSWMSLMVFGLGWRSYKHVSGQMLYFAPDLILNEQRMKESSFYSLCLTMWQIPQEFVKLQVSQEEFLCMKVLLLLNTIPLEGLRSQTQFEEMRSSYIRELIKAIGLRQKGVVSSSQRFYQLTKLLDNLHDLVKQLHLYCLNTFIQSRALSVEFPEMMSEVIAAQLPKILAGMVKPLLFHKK
Experimental: (§1) The (anti-)progestagenic activity of a compound of the invention (EC 50 and intrinsic activity) was determined in an in vitro bioassay of Chinese hamster ovary (CHO) cells stably transfected with the human progesterone receptor-B expression plasmid and with a reporter plasmid in which the MMTV-promoter is linked to the luciferase reporter gene. […] The cells were cultured with charcoal-treated supplemented defined bovine calf serum from Hyclone (Utah, USA) in Dulbecco's Modified Eagles Medium/Nutrient Mixture F-12 (DMEM/HAM F12 in ratio 1:1) from Gibco (Paisley, UK).

[2] = biological target: T1, human progesterone receptor-B; assay: Progesterone receptor-B transactivation assay, antiprogestagenic activity (inhibition of luciferase transactivation induced by Org 2058); format: cell-based; settings: in the presence of 1 nM (16α)-16-ethyl-21-hydroxy-19-norpregn-4-ene-3,20-dione (Org 2058); read-out: Anti-progestagenic activity EC50
Experimental: as §1

EC50 [1] [nM] | EC50 [2] [nM] | SMILES
10 to 100 | 100 to 10000 | CC(=S)N[C@H]1CCCN2c3cc(Cl)ccc3Oc3ccccc3[C@H]12 (relative stereo) [Example 21]
10 to 100 | 10 to 100 | N=C(N[C@H]1CCCN2c3cc(Cl)ccc3Oc3ccccc3[C@H]12)C(F)(F)F (relative stereo) [Example 29, trans-N-(7-Chloro-2,3,4,14b-tetrahydro-1H-dibenzo[b,f]pyrido[1,2-d][1,4]oxazepin-1-yl)-2,2,2-trifluoroacetimidamide]
10 to 100 | 100 to 10000 | O=C(N[C@H]1CCCN2c3cc(Cl)c(Cl)cc3Oc3ccccc3[C@H]12)C(F)(F)F (relative stereo) [Example 38A, trans-N-(7,8-Dichloro-2,3,4,14b-tetrahydro-1H-dibenzo[b,f]pyrido[1,2-d][1,4]oxazepin-1-yl)-2,2,2-trifluoroacetamide]
100 to 10000 | 100 to 10000 | O=C(N[C@H]1CCCN2c3cc(Cl)c(Br)cc3Oc3ccccc3[C@H]12)C(F)(F)F (relative stereo) [Example 39, trans-N-(8-Bromo-7-chloro-2,3,4,14b-tetrahydro-1H-dibenzo[b,f]pyrido[1,2-d][1,4]oxazepin-1-yl)-2,2,2-trifluoroacetamide]
100 to 10000 | 10 to 100 | COCCN[C@H]1CCCN2c3cc(Cl)ccc3Oc3ccccc3[C@H]12 (relative stereo) [Example 48, trans-7-Chloro-2,3,4,14b-tetrahydro-N-(2-methoxyethyl)-1H-dibenzo[b,f]pyrido[1,2-d][1,4]oxazepine-1-amine]
100 to 10000 | 10 to 100 | CC(C)(C)OC(=O)CN[C@H]1CCCN2c3cc(Cl)ccc3Sc3ccccc3[C@H]12 (relative stereo) [Example 49, 1,1-Dimetylethyl trans-2-[(7-chloro-2,3,4,14b-tetrahydro-1H-dibenzo[b,f]pyrido[1,2-d][1,4]thiazepin-1-yl)amino]acetate]
< 10 | < 10 | O=C(NC1CCCN2c3cc(Cl)ccc3Oc3ccccc3C12)C(F)F (stereo not drawn) [13 (1S14bR isomer)]
